# Laboratory results published in US20230331690A1, “THC DERIVATIVES, ORAL DOSAGE FORMS COMPRISING SAME, USES THEREOF FOR TREATING DISEASES AND DISORDERS AND SYNTHESIS THEREOF” (BAR-ILAN UNIVERSITY, priority 2020, published 2023).
# Legend:
# [1] = Persistence over time, brain samples postmortem (Example 18); type: in vivo, mice; conditions: 8 mg/kg administered, died at 6 h; number in brackets = mice with a value
# Procedure: (§1) Blood samples from each mouse were collected at each time point for the pharmacokinetics tests. For 6 h after administrating of all tested drugs, and after testing their WRL on the hot plate, half the mice (n=3) of each group were sacrificed, and the liver and brain of each animal were taken for pharmacokinetics tests. From the remaining mice, blood samples were acquired at 12 h after administration for pharmacokinetics tests. At 24 h after drug administration, and after checking the WRL again, second half of each group of mice were sacrificed, and the liver and brain of each animal were taken for pharmacokinetics tests.
# (§2) All the results of the brain and liver samples, which were taken postmortem 6 h or 24 h after administration (n=3) are summarized in Tables 12-13.
# [2] = Pharmacokinetics, liver samples (Example 17); type: in vivo, mice; conditions: label = analyte; for Component in the liver, Average: n=3
# [3] = Persistence over time, blood samples (Example 18); type: in vivo, mice; conditions: label = analyte
# Procedure: as §1
# [4] = Pharmacokinetics, blood samples (Example 17); conditions: 0.5 h after i.p. injection of THC or THC-d5, label = analyte; for Component in the blood, Average: n=6 (THC-d5 n=5)
# Procedure: The pharmacokinetics of 9-CD3-(8-D2)-THC compared to natural THC was evaluated using both intraperitoneal i.p. injection and an oral gavage administration for each material. The mice were divided into four groups containing 6 mice (24 mice total). For each group of mice, a blood sample was withdrawn at baseline (t=0), and half-hour intervals (t=0.5, 2 and 5 h) after administration of the drug. Three mice, half of each group, were euthanized with CO2 after 5 h and their organs (brain and liver) were collected. From the second half of each group, another blood sample was withdrawn 24 h after administration, and then these animals were euthanized and the brain and liver were collected for analysis.
# [5] = Persistence over time, liver samples postmortem (Example 18); type: in vivo, mice
# Procedure: as §1, §2
# [6] = 5 h after oral gavage administration of THC or THC-d5
# [7] = 24 h after i.p. injection of THC or THC-d5
# [8] = 4 mg/kg administration of THC or THC-d5, Time 0.5 h
# [9] = 4 mg/kg administration, Time 3 h
# [10] = 8 mg/kg administration of THC or THC-d5, Time 0.5 h
# [11] = 8 mg/kg administration, Time 3 h
# [12] = 2 mg/kg administered, died at 6 h
# [13] = 4 mg/kg administered, died at 6 h
# [14] = 8 mg/kg administered, died at 6 h
Compound,Average results for 3 mice - brain samples [1],"Component in the liver, mouse 1 [2, 6] [ng/mL]","Component in the liver, mouse 2 [2, 6] [ng/mL]","Component in the liver, mouse 3 [2, 6] [ng/mL]","Component in the liver, Average [2, 6] [ng/mL]","Component in the liver, mouse 3 [2, 7] [ng/mL]","Average results, blood samples [3, 8] [ng/mL]","Average results, blood samples [3, 9]","Average results, blood samples [3, 10] [ng/mL]","Average results, blood samples [3, 11] [ng/mL]","Component in the blood, mouse 1 [4] [ng/mL]","Component in the blood, mouse 2 [4] [ng/mL]","Component in the blood, mouse 3 [4] [ng/mL]","Component in the blood, mouse 4 [4] [ng/mL]","Component in the blood, mouse 5 [4] [ng/mL]","Component in the blood, mouse 6 [4] [ng/mL]","Component in the blood, Average [4] [ng/mL]","Average results for 3 mice (Table 13, liver) [5, 12] [ng/g]","Average results for 3 mice (Table 13, liver) [5, 13] [ng/g]","Average results for 3 mice (Table 13, liver) [5, 14] [ng/g]",also measured
"CCCCCc1cc(O)c2c(c1)OC(C)(C)[C@@H]1CCC(C(=O)O)=C[C@@H]21 [11-COOH-THC, 11-nor-9-carboxy-THC]",2.04 (1) ng/g,38.89,33.82,25.34,32.68,1.49,11.87,1.39 (4/4) ng/mL,15.85,3.44,30.26,22.27,20.76,32.18,25.30,19.81,25.10,3.83,46.06,60.95,"Average results, blood samples ([3]; 4 mg/kg administration, Time 6 h): 0.41 (2/2) ng/mL; Average results, blood samples ([3]; 8 mg/kg administration, Time 6 h): 3.57 ng/mL; Average results, blood samples ([3]; 8 mg/kg administration, Time 12 h (3 mice)): 1.89 ng/mL; Average results for 3 mice (Table 13, liver) ([5]; 4 mg/kg administered, died at 24 h, number in brackets = mice with a value): 2.89 (1) ng/g"
CCCCCc1cc(O)c2c(c1)OC(C)(C)[C@@H]1CCC(CO)=C[C@@H]21 [11-OH-THC],5.2 (2) ng/g,6.56,23.90,2.83,11.10,1.46,1.54,0.18 (2/2) ng/mL,1.96,0.44,2.40,2.44,2.10,3.43,2.27,2.37,2.50,8.76,41.89,22.94,"Component in the liver, mouse 1 [2, 7]: 0.37 ng/mL; Component in the liver, mouse 2 [2, 7]: 3.12 ng/mL; Average results for 3 mice (Table 13, liver) ([5]; 8 mg/kg administered, died at 24 h, number in brackets = mice with a value): 5.57 (1) ng/g"
